In patent US20240228499A1, “MASP-2 INHIBITORS AND METHODS OF USE” (Omeros Corporation, priority 2022, published 2024):

Legend:
MASP-2 (CCP1-CCP2-SP) = biological target: T1, MASP-2 (CCP1-CCP2-SP) (Homo sapiens, UniProt O00187); test: Enzymatic assay for MASP-2 inhibitory activity (fluorogenic substrate); type: biochemical; details: room temperature, 20 mM Hepes pH 7.4, 20 min
T1 construct: 15 μL of Enzyme MASP-2 (CCP1-CCP2-SP) in Assay Buffer
In short: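 Human MASP-2 CCP1-CCP2-SP construct with a C2-cleavage-site fluorogenic substrate in 20 mM HEPES pH 7.4, 140 mM NaCl, 0.1% Tween 20, 20 min at room temperature before acetic acid stop. Activity normalised to DMSO and no-enzyme controls; IC50 taken as equivalent to Ki under linear conditions.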

human a-thrombin = biological target: T2, human a-thrombin (Homo sapiens, UniProt P00734); test: Enzymatic assay for thrombin (fluorogenic peptide substrate Boc-VPR-AMC); type: biochemical; details: room temperature, 20 mM Hepes pH 7.4, 20 min
T2 construct: enzyme (human a-thrombin (BioPharm® Lab.)); purchased BioPharm Lab
In short: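 Human α-thrombin was incubated with serially diluted compound and fluorogenic substrate Boc-VPR-AMC in 20 mM Hepes pH 7.4, 140 mM NaCl, 0.1% Tween 20 at room temperature. The reaction was stopped after 20 min with 0.1 M acetic acid and fluorescence read. % activity was normalized to DMSO and no-enzyme controls, and IC50 was taken as equivalent to Ki.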

T1 sequence (O00187 287-686 limits assumed): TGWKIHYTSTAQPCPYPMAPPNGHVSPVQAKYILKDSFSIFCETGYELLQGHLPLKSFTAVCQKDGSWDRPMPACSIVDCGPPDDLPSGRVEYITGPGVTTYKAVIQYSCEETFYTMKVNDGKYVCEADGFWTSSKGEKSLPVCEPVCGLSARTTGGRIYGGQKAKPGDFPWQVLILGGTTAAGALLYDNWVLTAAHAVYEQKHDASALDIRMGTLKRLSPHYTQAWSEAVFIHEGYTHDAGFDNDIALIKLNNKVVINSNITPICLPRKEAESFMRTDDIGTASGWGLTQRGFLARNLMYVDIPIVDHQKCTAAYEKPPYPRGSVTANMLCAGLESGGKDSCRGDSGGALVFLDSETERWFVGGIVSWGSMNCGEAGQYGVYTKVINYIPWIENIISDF

SMILES | Ki (MASP-2 (CCP1-CCP2-SP)) | Ki (human a-thrombin)
COc1cc(Cl)cc(CNc2cnc3n(c2=O)[C@@H](C(=O)N[C@H](C)c2ccc(N)nc2)CC3)c1 [Compound 77, (R)-N-((R)-1-(6-aminopyridin-3-yl)ethyl)-3-((3-chloro-5-methoxybenzyl)amino)-4-oxo-4,6,7,8-tetrahydropyrrolo[1,2-a]pyrimidine-6-carboxamide] | < 500 nM | > 25000 nM
Cc1cc(F)cc(CNc2cnc3n(c2=O)[C@H](C(=O)N[C@@H]2CCc4nc(N)ccc42)CC3)c1 [Compound 96] | < 500 nM | 500 to 2500 nM
Cc1ccc(CNc2cnc3n(c2=O)[C@H](C(=O)N[C@@H]2CCc4nc(N)ccc42)CC3)cc1C#N [Compound 88, (S)-N-((R)-2-amino-6,7-dihydro-5H-cyclopenta[b]pyridin-5-yl)-3-((3-cyano-4-methylbenzyl)amino)-4-oxo-4,6,7,8-tetrahydro-pyrrolo[1,2-a]pyrimidine-6-carboxamide] | < 500 nM | 500 to 2500 nM
Cc1cc(C)cc(CNc2cnc3n(c2=O)[C@H](C(=O)NCc2ccnc(C)c2)CC3)c1 [Compound 19, (S)-3-((3,5-dimethylbenzyl)amino)-N-((2-methylpyridin-4-yl)methyl)-4-oxo-4,6,7,8-tetrahydropyrrolo[1,2-a]pyrimidine-6-carboxamide] | 500 to 2500 nM | > 25000 nM
Cc1cc(C#N)cc(CNc2cnc3n(c2=O)[C@H](C(=O)NCc2ccc(N)nc2C)CC3)c1 [Compound 8, (S)—N-((6-amino-2-methylpyridin-3-yl)methyl)-3-((3-cyano-5-methylbenzyl)amino)-4-oxo-4,6,7,8-tetrahydropyrrolo[1,2-a]pyrimidine-6-carboxamide] | < 500 nM | 500 to 2500 nM
Cc1cc(C)cc(CNc2cnc3n(c2=O)[C@@H](C(=O)NCc2ccc(N)nc2)CC3)c1 [Compound 79] | < 500 nM | > 25000 nM

The next lines start with the values.

Ki (MASP-2 (CCP1-CCP2-SP)) | Ki (human a-thrombin) | SMILES
< 500 nM | 2500 to 10000 nM | Cc1nc(N)ccc1CNC(=O)[C@@H]1CCc2ncc(NCc3ccc(F)cc3)c(=O)n21 [Compound 52, (S)—N-((6-amino-2-methylpyridin-3-yl)methyl)-3-((4-fluorobenzyl)amino)-4-oxo-4,6,7,8-tetrahydropyrrolo[1,2-a]pyrimidine-6-carboxamide]
< 500 nM | 500 to 2500 nM | Cc1ccc(F)c(CNc2cnc3n(c2=O)[C@H](C(=O)NCc2ccc(N)nc2C)CC3)c1 [Compound 3, (S)—N-((6-amino-2-methylpyridin-3-yl)methyl)-3-((2-fluoro-5-methylbenzyl)amino)-4-oxo-4,6,7,8-tetrahydropyrrolo[1,2-a]pyrimidine-6-carboxamide]
< 500 nM | 500 to 2500 nM | Cc1nc(N)ccc1CNC(=O)[C@@H]1CCc2ncc(NCc3cc(F)ccc3F)c(=O)n21 [Compound 28, (S)-N-((6-amino-2-methylpyridin-3-yl)methyl)-3-((2,5-difluorobenzyl)amino)-4-oxo-4,6,7,8-tetrahydropyrrolo[1,2-a]pyrimidine-6-carboxamide, di-trifluoroacetate]
< 500 nM | 500 to 2500 nM | Cc1ccc(F)cc1CNc1cnc2n(c1=O)[C@H](C(=O)NCc1ccc(N)nc1C)CC2 [Compound 31, (S)-N-((6-amino-2-methylpyridin-3-yl)methyl)-3-((5-fluoro-2-methylbenzyl)amino)-4-oxo-4,6,7,8-tetrahydropyrrolo[1,2-a]pyrimidine-6-carboxamide, di-trifluoroacetate]
< 500 nM | < 500 nM | Cc1cc(F)cc(CNc2cnc3n(c2=O)[C@H](C(=O)NCc2ccc(N)nc2C)CC3)c1 [Compound 34, (S)-N-((6-amino-2-methylpyridin-3-yl)methyl)-3-((3-fluoro-5-methylbenzyl)amino)-4-oxo-4,6,7,8-tetrahydropyrrolo[1,2-a]pyrimidine-6-carboxamide, di-trifluoroacetate]
